According to article PMC6193465 (Journal of the American Chemical Society, 2018):
Read-outs that look alike come from different tables or passages of the source. Where no end group is shown, it is not given here.

Experiments:
[1] = system: prokaryotic protein synthesis; test: in vitro transcription-translation assay; assay type: biochemical; conditions: read-out: half-maximum inhibitory concentration, inhibition of prokaryotic protein synthesis
[2] = comparison value for 1; cited from earlier work
[3] = system: indicator bacterial strains; test: antibacterial activity, minimum inhibitory concentrations; assay type: cell-based; conditions: range over the strains tested (Table S5)
[4] = aqueous solubility; assay type: physicochemical

Substance | IC50 [1] [nM] | aqueous solubility [2] [µM] | minimum inhibitory concentrations [3] [µg/mL] | minimum inhibitory concentrations ([3]; in molar units) [µM] | aqueous solubility [4] [µM]
IASASCTTCICTCSCSS (also: bicyclic or more (positions not given here)) [compound 1, thiostrepton A, reference compound] | 500 ± 40 | 21.88 ± 0.05 | – | – | –
thiostrepton Aa [compound 7] | 260 ± 40 | – | 0.018 to 0.098 | 0.010 to 0.058 | 26.01 ± 0.05
